Results taken from patent US20210283261A1, “Compositions and Methods for Treating ALK-Mediated Cancer” (ICAHN SCHOOL OF MEDICINE AT MOUNT SINAI, priority 2017, published 2021).

target: T1, NPM-ALK fusion protein (Homo sapiens, UniProt Q9UM73); experiment: Western blot of NPM-ALK fusion protein levels in SU-DHL-1 cells; type: cell-based; conditions: SU-DHL-1 cells, 30 nM, Western blot; read-out: ALK fusion protein degradation, SU-DHL-1 (30 nM)
T1 construct: endogenous in cells; host or cells: SU-DHL-1; the other entry of the earlier key: NPM1 (P06748, Nucleophosmin)
T1 sequence (Q9UM73 with tags, fused parts or gaps): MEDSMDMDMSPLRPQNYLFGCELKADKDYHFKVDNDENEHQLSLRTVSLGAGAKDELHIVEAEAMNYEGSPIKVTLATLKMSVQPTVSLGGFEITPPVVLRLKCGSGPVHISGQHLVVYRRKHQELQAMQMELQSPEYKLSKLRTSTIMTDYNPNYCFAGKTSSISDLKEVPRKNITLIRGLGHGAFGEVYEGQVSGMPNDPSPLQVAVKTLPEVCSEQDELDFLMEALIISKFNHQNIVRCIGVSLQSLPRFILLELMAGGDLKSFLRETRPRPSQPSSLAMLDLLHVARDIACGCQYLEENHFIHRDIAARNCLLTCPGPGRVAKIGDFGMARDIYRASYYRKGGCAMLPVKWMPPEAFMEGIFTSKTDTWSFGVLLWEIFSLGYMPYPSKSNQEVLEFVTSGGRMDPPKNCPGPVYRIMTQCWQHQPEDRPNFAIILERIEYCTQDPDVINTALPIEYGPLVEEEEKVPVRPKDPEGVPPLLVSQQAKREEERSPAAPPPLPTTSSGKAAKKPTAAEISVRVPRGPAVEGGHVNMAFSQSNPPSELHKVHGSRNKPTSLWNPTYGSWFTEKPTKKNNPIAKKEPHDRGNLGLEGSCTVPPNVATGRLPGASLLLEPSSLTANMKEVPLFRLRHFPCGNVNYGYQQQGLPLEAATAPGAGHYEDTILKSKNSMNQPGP
Description: Cells were cultured in a 37° C. incubator with 5% CO2.
Cells were washed with cold PBS once and lysed in 1× Laemmli loading buffer directly. […] Membrane was blocked in 5% milk in Tris-buffered saline and Tween 20 (TBST) for 1 h at room temperature, followed by incubation with a primary antibody overnight at 4° C., and a horseradish peroxidase (HRP)-conjugated secondary antibody for 1 h at room temperature. The membrane was imaged by a ChemiDoc MP imaging system (BIO-RAD). Antibodies against GAPDH (abeam), Phospho-ALK (Tyr1507), ALK (Cell Signaling Technology), Tubulin (Santa Cruz) were purchased commercially.
SU-DHL-1 suspension cells were seeded in 12-well plates at a density of 6×10^5/mL and treated with DMSO or indicated compounds at 30 nM or 100 nM for indicated time.
SU-DHL-1 cells were seeded in 12-well plates at a density of 4×10^5/mL and treated with DMSO or indicated serial dilutions of compounds for 16 h. The NPM-ALK fusion protein levels were determined by Western blot and normalized against GPADH (right panel).

| SMILES | Dmax at 0.03 µM |
| --- | --- |
| Cc1cc(Nc2ncc(Cl)c(Nc3ccccc3S(=O)(=O)C(C)C)n2)c(OC(C)C)cc1C1CCN(CC(=O)NCCCCCCCCC(=O)N[C@H](C(=O)N2C[C@H](O)C[C@H]2C(=O)NCc2ccc(-c3scnc3C)cc2)C(C)(C)C)CC1 [CZ40-92, (2S,4R)-1-((S)-2-(9-(2-(4-(4-((5-Chloro-4-((2-(isopropylsulfonyl)phenyl)amino)pyrimidin-2-yl)amino)-5-isopropoxy-2-methylphenyl)piperidin-1-yl)acetamido)nonanaimdo)-3,3-dimethylbutanoyl)-4-hydroxy-N-(4-(4-methylthiazol-5-yl)benzyl)pyrrolidine-2-carboxamide] | < 20% |
| Cc1cc(Nc2ncc(Cl)c(Nc3ccccc3S(=O)(=O)C(C)C)n2)c(OC(C)C)cc1C1CCN(CC(=O)NCCCNc2cccc3c2C(=O)N(C2CCC(=O)NC2=O)C3=O)CC1 (stereo not drawn) [CZ40-79, 2-(4-(4-((5-Chloro-4-((2-(isopropylsulfonyl)phenyl)amino)pyrimidin-2-yl)amino)-5-isopropoxy-2-methylphenyl)piperidin-1-yl)-N-(3-((2-(2,6-dioxopiperidin-3-yl)-1,3-dioxoisoindolin-4-yl)amino)propyl)acetamide] | > 80% |
| Cc1cc(Nc2ncc(Cl)c(Nc3ccccc3S(=O)(=O)C(C)C)n2)c(OC(C)C)cc1C1CCN(CC(=O)NCCCCCCC(=O)N[C@H](C(=O)N2C[C@H](O)C[C@H]2C(=O)NCc2ccc(-c3scnc3C)cc2)C(C)(C)C)CC1 [CZ40-90, (2S,4R)-1-((S)-2-(7-(2-(4-(4-((5-Chloro-4-((2-(isopropylsulfonyl)phenyl)amino)pyrimidin-2-yl)amino)-5-isopropoxy-2-methylphenyl)piperidin-1-yl)acetamido)heptanamido)-3,3-dimethylbutanoyl)-4-hydroxy-N-(4-(4-methylthiazol-5-yl)benzyl)pyrrolidine-2-carboxamide] | < 20% |
| Cc1cc(Nc2ncc(Cl)c(Nc3ccccc3S(=O)(=O)C(C)C)n2)c(OC(C)C)cc1C1CCN(CC(=O)NCCCCCCCCNc2cccc3c2C(=O)N(C2CCC(=O)NC2=O)C3=O)CC1 (stereo not drawn) [CZ40-84, 2-(4-(4-((5-Chloro-4-((2-(isopropylsulfonyl)phenyl)amino)pyrimidin-2-yl)amino)-5-isopropoxy-2-methylphenyl)piperidin-1-yl)-N-(8-((2-(2,6-dioxopiperidin-3-yl)-1,3-dioxoisoindolin-4-yl)amino)octyl)acetamide] | 20 to 80% |
| Cc1cc(Nc2ncc(Cl)c(Nc3ccccc3S(=O)(=O)C(C)C)n2)c(OC(C)C)cc1C1CCN(CC(=O)NCCOCCOCCOCCOCCC(=O)N[C@H](C(=O)N2C[C@H](O)C[C@H]2C(=O)NCc2ccc(-c3scnc3C)cc2)C(C)(C)C)CC1 [CZ40-87, (2S,4R)-1-((S)-20-(tert-Butyl)-1-(4-(4-((5-chloro-4-((2-(isopropylsulfonyl)phenyl)amino)pyrimidin-2-yl)amino)-5-isopropoxy-2-methylphenyl)piperidin-1-yl)-2,18-dioxo-6,9,12,15-tetraoxa-3,19-diazahenicosan-21-oyl)-4-hydroxy-7V-(4-(4-methylthiazol-5-yl)benzyl)pyrrolidine-2-carboxamide] | < 20% |
| Cc1cc(Nc2ncc(Cl)c(Nc3ccccc3S(=O)(=O)C(C)C)n2)c(OC(C)C)cc1C1CCN(CC(=O)NCCCCCNc2cccc3c2C(=O)N(C2CCC(=O)NC2=O)C3=O)CC1 (stereo not drawn) [CZ40-81, 2-(4-(4-((5-Chloro-4-((2-(isopropylsulfonyl)phenyl)amino)pyrimidin-2-yl)amino)-5-isopropoxy-2-methylphenyl)piperidin-1-yl)-N-(5-((2-(2,6-dioxopiperidin-3-yl)-1,3-dioxoisoindolin-4-yl)amino)pentyl)acetamide] | > 80% |
| Cc1cc(Nc2ncc(Cl)c(Nc3ccccc3S(=O)(=O)C(C)C)n2)c(OC(C)C)cc1C1CCN(CC(=O)NCCCCC(=O)N[C@H](C(=O)N2C[C@H](O)C[C@H]2C(=O)NCc2ccc(-c3scnc3C)cc2)C(C)(C)C)CC1 [CZ40-88, (2S,4R)-1-((S)-2-(5-(2-(4-(4-((5-Chloro-4-((2-(isopropylsulfonyl)phenyl)amino)pyrimidin-2-yl)amino)-5-isopropoxy-2-methylphenyl)piperidin-1-yl)acetamido)pentanamido)-3,3-dimethylbutanoyl)-4-hydroxy-N-(4-(4-methylthiazol-5-yl)benzyl)pyrrolidine-2-carboxamide] | 20 to 80% |
| Cc1cc(Nc2ncc(Cl)c(Nc3ccccc3S(=O)(=O)C(C)C)n2)c(OC(C)C)cc1C1CCN(CC(=O)NCCOCCOCCNc2cccc3c2C(=O)N(C2CCC(=O)NC2=O)C3=O)CC1 (stereo not drawn) [CZ40-51, 2-(4-(4-((5-Chloro-4-((2-(isopropylsulfonyl)phenyl)amino)pyrimidin-2-yl)amino)-5-isopropoxy-2-methylphenyl)piperidin-1-yl)-N-(2-(2-(2-((2-(2,6-dioxopiperidin-3-yl)-1,3-dioxoisoindolin-4-yl)amino)ethoxy)ethoxy)ethyl)acetamide] | > 80% |
| Cc1cc(Nc2ncc(Cl)c(Nc3ccccc3S(=O)(=O)C(C)C)n2)c(OC(C)C)cc1C1CCN(CC(=O)NCCOCC(=O)N[C@H](C(=O)N2C[C@H](O)C[C@H]2C(=O)NCc2ccc(-c3scnc3C)cc2)C(C)(C)C)CC1 [CZ40-85, (2S,4R)-1-((S)-2-(2-(2-(2-(4-(4-((5-Chloro-4-((2-(isopropylsulfonyl)phenyl)amino)pyrimidin-2-yl)amino)-5-isopropoxy-2-methylphenyl)piperidin-1-yl)acetamido)ethoxy)acetamido)-3,3-dimethylbutanoyl)-4-hydroxy-N-(4-(4-methylthiazol-5-yl)benzyl)pyrrolidine-2-carboxamide] | < 20% |
| Cc1cc(Nc2ncc(Cl)c(Nc3ccccc3S(=O)(=O)C(C)C)n2)c(OC(C)C)cc1C1CCN(CC(=O)NCCCCNc2cccc3c2C(=O)N(C2CCC(=O)NC2=O)C3=O)CC1 (stereo not drawn) [CZ40-80, 2-(4-(4-((5-Chloro-4-((2-(isopropylsulfonyl)phenyl)amino)pyrimidin-2-yl)amino)-5-isopropoxy-2-methylphenyl)piperidin-1-yl)-N-(4-((2-(2,6-dioxopiperidin-3-yl)-1,3-dioxoisoindolin-4-yl)amino)butyl)acetamide] | 20 to 80% |
| Cc1cc(Nc2ncc(Cl)c(Nc3ccccc3S(=O)(=O)C(C)C)n2)c(OC(C)C)cc1C1CCN(CC(=O)NCCCCCCNc2cccc3c2C(=O)N(C2CCC(=O)NC2=O)C3=O)CC1 (stereo not drawn) [CZ40-82, 2-(4-(4-((5-Chloro-4-((2-(isopropylsulfonyl)phenyl)amino)pyrimidin-2-yl)amino)-5-isopropoxy-2-methylphenyl)piperidin-1-yl)-N-(6-((2-(2,6-dioxopiperidin-3-yl)-1,3-dioxoisoindolin-4-yl)amino)hexyl)acetamide] | > 80% |
| Cc1cc(Nc2ncc(Cl)c(Nc3ccccc3S(=O)(=O)C(C)C)n2)c(OC(C)C)cc1C1CCN(CC(=O)NCCOCCOCCOCCNc2cccc3c2C(=O)N(C2CCC(=O)NC2=O)C3=O)CC1 (stereo not drawn) [CZ40-52, 2-(4-(4-((5-Chloro-4-((2-(isopropylsulfonyl)phenyl)amino)pyrimidin-2-yl)amino)-5-isopropoxy-2-methylphenyl)piperidin-1-yl)-N-(2-(2-(2-(2-((2-(2,6-dioxopiperidin-3-yl)-1,3-dioxoisoindolin-4-yl)amino)ethoxy)ethoxy)ethoxy)ethyl)acetamide] | > 80% |
